In article PMC11088877, “AMP-activated protein kinase can be allosterically activated by ADP but AMP remains the key activating ligand” (Biochemical Journal, 2024):

Assays:
[1] = target: T1, human α2β2γ1 complex, CBS1 mutant (L129D/V130D) (Homo sapiens, UniProt P54619+P54646, L129D/V130D); assay: AMPK activation and Thr172 phosphorylation by the LKB1 complex, CBS1 mutant; format: biochemical; details: 300 µM nucleotide, 200 µM ATP
T1 construct: made in house; host or cells: Escherichia coli
Experimental: The relative roles of the three CBS sites in the other two mechanisms of activation of AMPK by AMP or ADP, i.e. promotion of Thr172 phosphorylation by LKB1, and protection against Thr172 dephosphorylation by protein phosphatases, have not been examined previously. As expected, incubation of the α2β2γ1 AMPK complex with a fixed, limiting amount of purified LKB1:STRADα:MO25α complex in the presence of 200 µM Mg.ATP^2− caused a large degree of activation (Figure 5A) and phosphorylation (Figure 5B) of AMPK (unphosphorylated α2β2γ1 complex), which were stimulated more than 2-fold by 300 µM AMP and 1.6-fold by 300 µM ADP.
Figure 5. Effects of AMP or ADP on AMPK activation and Thr172 phosphorylation by the LKB1:STRADα:MO25α complex. Unphosphorylated human α2β2γ1 complexes (WT, or with L129D/V130D, V276G/L277G or I312G mutations affecting CBS1, CBS3 or CBS4 respectively) were incubated with ATP and a fixed concentration of the LKB1:STRADα:MO25α complex in the presence or absence of AMP or ADP (both 300 µM), as described in the Materials and methods section. After the incubation aliquots were withdrawn for (A) AMPK assay or (B) Western blots. […] For (B), due to a limit on the number of lanes that could be run on one gel, single replicates from the triplicate assays were analysed. […]

[2] = test system: FLAG-γ1-containing AMPK complexes; set-up: method as in PMID 26542978; details: ADP 300 µM to 3 mM; cited from earlier work

T1 sequence (P54619 whole entry L129D/V130D): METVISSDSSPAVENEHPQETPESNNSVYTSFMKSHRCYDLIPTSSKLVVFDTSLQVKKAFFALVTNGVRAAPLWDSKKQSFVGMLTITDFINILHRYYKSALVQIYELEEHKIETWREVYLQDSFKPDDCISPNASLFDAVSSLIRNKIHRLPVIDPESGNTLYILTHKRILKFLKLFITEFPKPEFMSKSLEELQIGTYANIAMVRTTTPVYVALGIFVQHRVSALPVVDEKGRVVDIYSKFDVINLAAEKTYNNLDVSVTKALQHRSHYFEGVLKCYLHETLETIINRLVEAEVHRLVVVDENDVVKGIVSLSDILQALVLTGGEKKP
T1 sequence (P54646 whole entry): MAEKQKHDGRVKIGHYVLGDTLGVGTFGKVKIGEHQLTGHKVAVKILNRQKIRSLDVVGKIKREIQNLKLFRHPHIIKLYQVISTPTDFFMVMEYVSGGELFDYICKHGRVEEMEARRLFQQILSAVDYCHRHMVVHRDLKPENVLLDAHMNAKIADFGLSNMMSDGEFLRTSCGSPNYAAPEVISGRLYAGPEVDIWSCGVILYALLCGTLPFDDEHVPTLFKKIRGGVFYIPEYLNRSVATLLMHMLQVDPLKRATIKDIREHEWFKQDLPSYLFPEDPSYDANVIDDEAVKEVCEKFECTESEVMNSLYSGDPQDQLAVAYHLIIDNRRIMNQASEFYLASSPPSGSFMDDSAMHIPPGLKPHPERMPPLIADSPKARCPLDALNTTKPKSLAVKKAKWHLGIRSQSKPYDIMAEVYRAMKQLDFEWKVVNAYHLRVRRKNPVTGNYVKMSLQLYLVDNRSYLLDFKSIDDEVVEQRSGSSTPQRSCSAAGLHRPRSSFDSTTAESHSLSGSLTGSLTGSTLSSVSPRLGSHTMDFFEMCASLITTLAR
T1 sequence (O43741 whole entry partner): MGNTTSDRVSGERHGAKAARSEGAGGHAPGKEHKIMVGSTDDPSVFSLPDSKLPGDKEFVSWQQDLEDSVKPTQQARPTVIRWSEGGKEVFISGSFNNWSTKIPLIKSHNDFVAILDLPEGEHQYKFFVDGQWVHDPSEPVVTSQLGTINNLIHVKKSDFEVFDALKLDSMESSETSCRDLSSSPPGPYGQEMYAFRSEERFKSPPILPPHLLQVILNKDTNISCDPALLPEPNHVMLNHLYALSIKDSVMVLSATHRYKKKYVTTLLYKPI

SMILES	effect of nucleotide on activation/phosphorylation by LKB1 in the mutant [1]	stimulation of activation by LKB1 [2] [fold]
Nc1ncnc2c1ncn2[C@@H]1O[C@H](COP(=O)(O)O)[C@@H](O)[C@H]1O [AMP]	unaffected	
Nc1ncnc2c1ncn2[C@@H]1O[C@H](COP(=O)(O)OP(=O)(O)O)[C@@H](O)[C@H]1O [ADP]	unaffected	< 2
